Data: patent publication US20210311050A1, “TARGETING PATHOGENIC B CELLS IN AUTOIMMUNITY” (Research Foundation for the STATE UNIVERSITY OF NEW YORK, priority 2018, published 2021)
“Also recorded” adds a separate entry of the source.

Key:
CD11c^+ T-bet^+ B cells = assay: Depletion of splenic CD11c+ T-bet+ B cells in E. muris-infected mice (flow cytometry); assay type: in vivo, C57BL/6 mice
CD11c^+ CD19^+ B cells [1] = assay: In vitro agonist treatment of T cell-depleted spleen cells from E. muris-infected mice; assay type: cell-based; conditions: 48 hours
Description: FIGS. 6A-6B. In vitro agonist treatment eliminated T-bet^+ B cells. CD11c and CD19 flow cytometry data using B cells isolated from (A) vehicle-treated splenocytoes and (B) A2aR agonist (CGS21680)-treated splenocytes. C57BL/6 mice were infected with E. muris; 30 days post-infection, T cell-depleted spleen cells were incubated in cell culture medium treated with vehicle, or CGS21680 (1 μM), for 48 hours. Approximately 50% of the CD11c^+ CD19^+ B cells were depleted by the agonist.
FIGS. 7A-7B. In vitro Regadenoson treatment eliminated T-bet^+ B cells. (A) vehicle treated splenocytes and (B) agonist (Regadenoson)-treated splenocytes. Mice were infected with E. muris; 44 days post-infection, T cell-depleted spleen cells were incubated in medium with or without Regadenson (10 μM), for 48 hours. Approximately 30% of the CD11c^+ CD19^+ B cells were depleted by Regadenoson in vitro.

CD11c^+ CD19^+ B cells [2] = assay: Depletion of T-bet+ B cells in lupus-prone MRL/lpr mice (flow cytometry of spleen cells); assay type: in vivo, MRL/lpr (MRL/MpJ-Fas^lpr/J) mice; conditions: 12 to 13 week old MRL/lpr mice, treated every other day for 7 days
Description: FIGS. 5A-5B. Agonist treatment eliminated T-bet^+ B cells in lupus-prone MRL/lpr (MRL/MpJ-Fas^lpr/J) mice. CD11c and CD19 flow cytometry data from (A) vehicle-treated mice and (B) A2aR agonist (CGS21680)-treated mice. 12 to 13 week old MRL/lpr mice were treated with vehicle, or CGS21680, every other day for 7 days, at which time spleen cells were analyzed by flow cytometry.

[3] = test system: CD11c^+ CD19^+ or T-bet^+ CD19^+ B cells; assay: Depletion of T-bet+ B cells in lupus-prone SLE1.2.3 mice (flow cytometry of spleen cells); assay type: in vivo, SLE1.2.3 (B6.NZMs^Sle1/Sle2/Sle3) mice; conditions: nine-month old SLE mice, treated every other day for 7 days, n=6
Description: FIGS. 4A-4D. Agonist treatment eliminated T-bet+ B cells in lupus-prone SLE1.2.3 (B6.NZMs^Sle1/Sle2/Sle3) mice. (A) CD11c and CD19 flow cytometry data from vehicle treated mice. (B) CD11c and CD19 flow cytometry data from A2aR agonist (CGS21680)-treated mice. (C) T-bet and CD19 flow cytometry data from vehicle-treated mice. (D) T-bet and CD19 flow cytometry data from agonist (CGS21680)-treated mice. Nine-month old SLE mice were treated with vehicle, or CGS21680, every other day for 7 days, at which time spleen cells were analyzed by flow cytometry. CD11c^+ CD19^+ ((A) and (B)) or T-bet^+ CD19^+ ((C) and (D)) B cells were analyzed. […] The data shown are representative of an experiment where n=6.

[4] = test system: CD11c^+ CD19^+ B cells (also T-bet^+); assay: Agonist treatment of E. muris-infected wild-type versus B cell-specific A2aR KO mice (flow cytometry of spleen cells); assay type: in vivo; conditions: 30 days post-infection, treated every other day for 7 days
Description: FIGS. 3A-3B. […] CD11c and CD19 flow cytometry data from (A) Wild type mice (B) mice that lacked A2aR only on B cells. The mice were infected with E. muris; 30 days post-infection wild-type or MB1-cre×A2aR^fl/fl (B cell-specific A2aR KO) mice were treated with CGS21680 every other day for 7 days, at which time spleen cells were analyzed by flow cytometry. CD11c^+ CD19^+ B cells (also T-bet^+) were eliminated in the wild-type mice (A), but not in the B cell-specific A2aR KO mice (B). The data shown are representative of several experiments.

[5] = test system: anti-nuclear antibodies (ANAs); assay: Anti-nuclear antibodies in lupus-prone MRL/lpr mice; assay type: in vivo; conditions: once weekly from 9 weeks of age, sacrificed at 15 weeks of age
Excerpt: FIG. 9. […] CGS21680-treated mice had much lower amounts of anti-nuclear antibodies (ANAs). ANAs are a signature of disease in lupus mice.

[6] = test system: T-bet+ Age-related B cells (ABCs); assay: Depletion of T-bet+ Age-related B cells (ABCs) in aged mice; assay type: in vivo; conditions: administered at day 0, 4 and 6; sacrificed day 7; flow cytometry
Description: FIG. 8A-8C. T-bet+ Age-related B cells (ABCs) were depleted in aged mice upon CGS21680 treatment. CD11c and CD19 flow cytometry data from (A) vehicle-treated and (B) A2aR agonist-(CGS21680) treated aged mice. CGS21680 was administered at day 0, 4 and 6. Mice were sacrificed on day 7 and ABCs were identified using flow cytometry. (C) Quantification of the data in (A) and (B).

Row | SMILES | number of Tbet^+ B cells in splenocytes (CD11c^+ T-bet^+ B cells; 2.5 mg/kg every other day for 7 days from day 30 post-infection, analysed day 37, P=0.0049 vs vehicle) | CD11c^+ CD19^+ B cells depleted in vitro (CD11c^+ CD19^+ B cells [1]; 10 μM, 44 days post-infection) | CD11c^+ CD19^+ B cells in spleen (CD11c^+ CD19^+ B cells [2]) | CD11c^+ CD19^+ or T-bet^+ CD19^+ B cells in spleen [3] | CD11c^+ T-bet^+ B cells in spleen after cessation of treatment (CD11c^+ T-bet^+ B cells; 2.5 mg/kg daily for 7 days from day 30, spleen harvested 12 days following cessation (day 48), p<0.0001 vs vehicle) | CD11c^+ T-bet^+ B cells in spleen after agonist treatment (CD11c^+ T-bet^+ B cells; E. muris infection day 0, 2.5 mg/kg daily for 7 days from day 30, spleen harvested day 37, p<0.0001 vs vehicle, 2.5 mg/kg) | CD11c^+ CD19^+ B cells (also T-bet^+) in spleen, B cell-specific A2aR KO mice ([4]; MB1-cre×A2aR^fl/fl mice) | CD11c^+ CD19^+ B cells (also T-bet^+) in spleen, wild-type mice ([4]; wild-type mice) | CD11c^+ CD19^+ B cells depleted in vitro (CD11c^+ CD19^+ B cells [1]; 1 μM, 30 days post-infection) | amounts of anti-nuclear antibodies (ANAs) [5] | T-bet+ Age-related B cells (ABCs) in aged mice [6]
1 | CNC(=O)c1cnn(-c2nc(N)c3ncn([C@@H]4O[C@H](CO)[C@@H](O)[C@H]4O)c3n2)c1 [Regadenoson] | reduced | Approximately 30% |  |  |  |  |  |  |  |  | 
2 | CCNC(=O)[C@H]1O[C@@H](n2cnc3c(N)nc(NCCc4ccc(CCC(=O)O)cc4)nc32)[C@H](O)[C@@H]1O [CGS21680] |  |  | Most of the CD11c^+ CD19^+ B cells were eliminated | largely eliminated | prolonged depletion; also recorded: Significant cell depletion | largely absent; also recorded: major reduction | did not eliminate | eliminated | Approximately 50% | much lower | depleted
